Literature values in patent publication US20240189234A1, “SILICON PARTICLES FOR DRUG DELIVERY” (NACAMED AS, priority 2021, published 2024).

conditions: calculated log P values from Foye's Principles of Medicinal Chemistry

Structure (SMILES) | log P
CCOC(=O)[C@H](CCc1ccccc1)N[C@@H](C)C(=O)N1CCC[C@H]1C(=O)O [enalapril] | 3.25
COc1ccc([C@@H]2Sc3ccccc3N(CCN(C)C)C(=O)[C@@H]2OC(C)=O)cc1 [diltiazem] | 4.73
CC(CN1c2ccccc2Sc2ccccc21)N(C)C (stereo not drawn) [promethazine] | 4.89
CN(C)CC/C=C1/c2ccccc2Sc2ccc(Cl)cc21 [chlorprothixene] | 5.31
CN1C[C@H](C(=O)N[C@]2(C)O[C@@]3(O)[C@@H]4CCCN4C(=O)[C@H](Cc4ccccc4)N3C2=O)C=C2c3cccc4[nH]cc(c34)C[C@H]21 [ergotamine] | 7.37
O=C(O)COc1ccc(C(=O)c2cccs2)c(Cl)c1Cl [ticrynfen] | 3.05
CC(C(=O)O)c1cccc(Oc2ccccc2)c1 (stereo not drawn) [fenoprofen] | 3.72
CC[C@]1(O)C[C@@H]2CN(CCc3c([nH]c4ccccc34)[C@@](C(=O)OC)(c3cc4c(cc3OC)N(C)[C@H]3[C@@](O)(C(=O)OC)[C@H](OC(C)=O)[C@]5(CC)C=CCN6CC[C@]43[C@@H]65)C2)C1 [vinblastine] | 5.92
O=C1c2ccccc2C(=O)C1c1ccccc1 [phenindione] | 3.19
CCN(CC)CCN1c2ccccc2Sc2ccccc21 [diethazine] | 5.55
CC[C@H]1CN2CCc3cc(OC)c(OC)cc3[C@@H]2C[C@@H]1C[C@H]1NCCc2cc(OC)c(OC)cc21 [Emetine] | 3.82
CCOC(=O)C(C)(C)Oc1ccc(Cl)cc1 [clofibrate] | 3.88
CN(C)C/C=C(/c1ccc(Br)cc1)c1cccnc1 [zimeldine] | 3.07
CC[C@]1(O)C[C@@H]2CN(CCc3c([nH]c4ccccc34)[C@@](C(=O)OC)(c3cc4c(cc3OC)N(C)[C@H]3[C@@](O)(C(N)=O)[C@H](O)[C@]5(CC)C=CCN6CC[C@]43[C@@H]65)C2)C1 [vindesine] | 4.94
OCCN1CCN(CC/C=C2/c3ccccc3Sc3ccc(C(F)(F)F)cc32)CC1 [flupenthixol] | 3.67
CN1C[C@H](C(=O)N[C@]2(C)O[C@@]3(O)[C@@H]4CCCN4C(=O)[C@H](Cc4ccccc4)N3C2=O)C[C@@H]2c3cccc4[nH]cc(c34)C[C@H]21 [dihydroergotamine] | 5.69
CCc1cc2c(cc1CC)CC(NC[C@H](O)c1ccc(O)c3[nH]c(=O)ccc13)C2 [indacaterol] | 3.88
CN(C)CCOc1ccccc1Cc1ccccc1 [phenyltoloxamine] | 3.46
COc1ccc2c(c1)[C@]13CCCC[C@@H]1[C@H](C2)N(C)CC3 [dextromethorphan] | 3.89
c1ccc(CN(CC2=NCCN2)c2ccccc2)cc1 [antazoline] | 3.58
O=C1CN=C(c2ccccc2)c2cc(Cl)ccc2N1CC1CC1 [prazepam] | 3.70
CC(C)C(=O)Nc1ccc([N+](=O)[O-])c(C(F)(F)F)c1 [flutamide] | 3.52
Cc1cccc(Nc2ccccc2C(=O)O)c1C [mefenamic acid] | 4.83
CN(C)CCOC(c1ccccc1)c1ccc(Br)cc1 (stereo not drawn) [bromodiphenhydramine] | 4.03
CC(=O)N(CC(C)C(=O)O)c1c(I)cc(I)c(N)c1I (stereo not drawn) [iocetamic acid] | 4.57
CCCCCCC(C)(C)c1cc(O)c2c(c1)OC(C)(C)C1CCC(=O)CC21 (stereo not drawn) [nabilone] | 7.25
O=C(O)c1ccccc1Nc1cccc(C(F)(F)F)c1 [flufenamic acid] | 5.22
c1ccc(C2(N3CCCCC3)CCCCC2)cc1 [phencyclidine] | 4.25

Structure (SMILES) | log P
CNC1(c2ccccc2Cl)CCCCC1=O (stereo not drawn) [ketamine] | 3.01
CN(C)C(=O)C(CCN1CCC(O)(c2ccc(Cl)cc2)CC1)(c1ccccc1)c1ccccc1 [loperamide] | 4.15
CNCCC(Oc1ccc(C(F)(F)F)cc1)c1ccccc1 (stereo not drawn) [fluoxetine] | 3.93
CCC(=O)C(CC(C)N1CCCCC1)(c1ccccc1)c1ccccc1 (stereo not drawn) [dipipanone] | 5.10
C1CCC(C(CC2CCCCN2)C2CCCCC2)CC1 (stereo not drawn) [perhexilene] | 6.46
O=C(O)Cc1ccccc1Oc1ccc(Cl)cc1Cl [fenclofenac] | 4.59
C[C@H]1[C@H]2Cc3ccc(O)cc3[C@]1(C)CCN2CC1CC1 [cyclazocine] | 3.52
Cc1ccc(C(=O)Oc2ccc(C(O)CNC(C)(C)C)cc2OC(=O)c2ccc(C)cc2)cc1 (stereo not drawn) [bitolterol] | 4.16
CN1CCC(=C2c3ccccc3C=Cc3ccccc32)CC1 [cyproheptadine] | 4.92
OCc1cc(C(O)CNCCCCCCOCCCCc2ccccc2)ccc1O (stereo not drawn) [salmeterol] | 3.71
OCCN1CCN(CCCN2c3ccccc3Sc3ccc(Cl)cc32)CC1 [perphenazine] | 3.94
CC[C@]1(O)C[C@H]2CN(CCc3c([nH]c4ccccc34)[C@@](C(=O)OC)(c3cc4c(cc3OC)N(C=O)[C@H]3[C@@](O)(C(=O)OC)[C@H](OC(C)=O)[C@]5(CC)C=CCN6CC[C@]43[C@@H]65)C2)C1 [vincristine] | 5.75
Cc1ccc(/C(=C\CN2CCCC2)c2ccccn2)cc1 [triprolidine] | 3.25
CO[C@@H]1[C@@H](OC(N)=O)[C@@H](O)[C@H](Oc2ccc3c(O)c(NC(=O)c4ccc(O)c(CC=C(C)C)c4)c(=O)oc3c2C)OC1(C)C [novobiocin] | 3.74
CCCN(CC)C(CC)C(=O)Nc1c(C)cccc1C (stereo not drawn) [etidocaine] | 3.57
COc1ccc(Cl)cc1C(=O)NCCc1ccc(S(=O)(=O)NC(=O)NC2CCCCC2)cc1 [glibenclamide] | 3.08
CCN(CC)C(C)CN1c2ccccc2Sc2ccccc21 (stereo not drawn) [ethopropazine] | 4.77
CCCCCCC(=O)OCCN1CCN(CCCN2c3ccccc3Sc3ccc(C(F)(F)F)cc32)CC1 [fluphenazine enanthate] | 7.29
CCC(Cc1c(I)cc(I)c(N)c1I)C(=O)O (stereo not drawn) [iopanoic acid] | 4.65
O=C(CCCCC(=O)Nc1c(I)cc(I)c(C(=O)O)c1I)Nc1c(I)cc(I)c(C(=O)O)c1I [iodipamide] | 5.10
CC1(C)[C@@H](OC(=O)CCC(=O)O)CC[C@]2(C)[C@H]3C(=O)C=C4[C@@H]5C[C@@](C)(C(=O)O)CC[C@]5(C)CC[C@@]4(C)[C@]3(C)CC[C@@H]12 [carbenoxolone] | 6.63
Cc1ccc(Cl)c(Nc2ccccc2C(=O)O)c1Cl [meclofenamic acid] | 5.44
Cc1ccsc1C(=CCCN1CCC[C@@H](C(=O)O)C1)c1sccc1C [tiagabine] | 4.03
CCN(CC)CCOC(=O)C1(C2CCCCC2)CCCCC1 [dicyclomine] | 4.64
CN1CCCC(CN2c3ccccc3Sc3ccccc32)C1 (stereo not drawn) [mepazine] | 5.04
CCN(CC)CCCC(C)Nc1cc(OC)cc2cccnc12 (stereo not drawn) [pamaquine] | 4.38
Cc1ccc(N(CC2=NCCN2)c2cccc(O)c2)cc1 [phentolamine] | 4.08

conditions: oral

Structure (SMILES) | absolute bioavailability
CCOC(=O)[C@H](CCc1ccccc1)N[C@@H](C)C(=O)N1CCC[C@H]1C(=O)O [enalapril] | 60%
CCOc1nc2cccc(C(=O)O)c2n1Cc1ccc(-c2ccccc2-c2nnn[nH]2)cc1 [candesartan] | 40%
CC(C)NCC(O)COc1cccc2ccccc12 (stereo not drawn) [propranolol] | 26%
CCCCC(=O)N(Cc1ccc(-c2ccccc2-c2nnn[nH]2)cc1)[C@H](C(=O)O)C(C)C [valsartan] | 25%
COc1ccc([C@@H]2Sc3ccccc3N(CCN(C)C)C(=O)[C@@H]2OC(C)=O)cc1 [diltiazem] | 40%
CC1(C)S[C@@H]2[C@H](NC(=O)COc3ccccc3)C(=O)N2[C@H]1C(=O)O [phenoxymethylpenicillin] | 50%
CC[C@H]1OC(=O)[C@H](C)[C@@H](O[C@H]2C[C@@](C)(OC)[C@@H](O)[C@H](C)O2)[C@H](C)[C@@H](O[C@@H]2O[C@H](C)C[C@H](N(C)C)[C@H]2O)[C@](C)(O)C[C@@H](C)CN(C)[C@H](C)[C@@H](O)[C@]1(C)O [azithromycin] | 40%
C[C@@H]1[C@H](O)[C@@H](C)/C=C/C=C/C=C/C=C/C=C/C=C/C=C/[C@H](O[C@@H]2O[C@H](C)[C@@H](O)[C@H](N)[C@@H]2O)C[C@@H]2O[C@](O)(C[C@@H](O)C[C@@H](O)[C@H](O)CC[C@@H](O)C[C@@H](O)CC(=O)O[C@H]1C)C[C@H](O)[C@H]2C(=O)O [amphotericin B] | very low
